Data published in US4139629A, “Pseudomonic acid amide antibacterial compounds” (priority 1976, dated 1979).
Converted amounts (≈) assume the structure as drawn. Where two headings read alike, the source gives them in different places.

Tests used:
[1] = tested on: N.gonorrhoeae; assay: Activity against N.gonorrhoeae, MIC by serial dilution in 10% horse blood agar; format: cell-based; conditions: Neisseria gonorrhoeae, 24 h
Description: (§1) *Serial dilution in 10% horse blood agar. Incubated in a partial atmosphere of CO2 for 24 hours at 37° C. Inoculated with one drop (0.001ml) of an overnight cell suspension.

[2] = tested on: Oxford Staph.; assay: MIC by serial dilution in 10% horse blood agar (Table 2); format: cell-based; conditions: 24 hours at 37° C.
Description: as §1

[3] = tested on: B. Subtilis; assay: Antibacterial activity against Gram-positive organisms (MIC); format: cell-based; conditions: Bacillus subtilis
[4] = tested on: Staph. aureus 1517; assay: as above; format: cell-based; conditions: Staphylococcus aureus
[5] = tested on: Strep. faecalis; assay: as above; format: cell-based; conditions: Enterococcus faecalis
[6] = tested on: Staph. aureus Oxford; assay: as above; format: cell-based; conditions: Staphylococcus aureus
[7] = tested on: Staph. aureus Russell; assay: as above; format: cell-based; conditions: Staphylococcus aureus
[8] = tested on: β-Haemolytic Strep. CN10; assay: as above; format: cell-based
[9] = tested on: M. dispar H 225; assay: Antimycoplasmal MIC, metabolic-inhibition test in Microtitre plates; format: cell-based; conditions: 168 h; M. dispar H 225, source cattle; 37° C. for 7 days
Description: (§2) The method used to test for antimycoplasmal activity was as follows:
(§3) The minimal inhibitory concentration (MIC) of the pseudomonic acid amides was determined in Microtitre plates, by a modification of the metabolic-inhibition test (Taylor-Robinson, 1967). The compounds were serially diluted in sterile de-ionised water to give a range of concentrations from 250-0.5 μg/ml. Mycoplasma broth containing 1% (w/v) of glucose and 0.005% (w/v) of phenol red, was added at a strength to compensate for its dilution by the aqueous drug solution. Approximately 10^4 colony forming units of mycoplasma were added to each concentration of drug. Drug-free infected, non-infected and pH control wells were included on each plate. Plates were sealed with cellophane tape and incubated at 37° C. for 7 days. The MIC was the lowest concentration of compound that prevented a colour change in the mycoplasma broth caused by the metabolism of glucose by the mycoplasmas.

[10] = tested on: M. synoviae ATCC 25204; assay: as above; format: cell-based; conditions: Mycoplasmopsis synoviae, ATCC25204, 168 h; M. synoviae ATCC 25204, source chicken; 37° C. for 7 days
Description: as §2, §3

[11] = tested on: M. pulmonis `JB`; assay: as above; format: cell-based; conditions: Mycoplasmopsis pulmonis, 168 h, source mouse, 37° C. for 7 days
Description: as §2, §3

[12] = tested on: M. agalactiae ATCC 25025; assay: as above; format: cell-based; conditions: Mycoplasmopsis agalactiae, ATCC25025, 168 h; M. agalactiae ATCC 25025, source cattle; 37° C. for 7 days
Description: as §2, §3

[13] = tested on: M. gallisepticum S6; assay: as above; format: cell-based; conditions: Mycoplasmoides gallisepticum, 168 h; M. gallisepticum S6, source chicken; 37° C. for 7 days
Description: as §2, §3

[14] = tested on: M. suipneumoniae (Laber); assay: as above; format: cell-based; conditions: Mesomycoplasma hyopneumoniae, 168 h, source pig, 37° C. for 7 days
Description: as §2, §3

[15] = tested on: M. fermentans MWKL4; assay: as above; format: cell-based; conditions: Mycoplasmopsis fermentans, 168 h; M. fermentans MWKL4, source man; 37° C. for 7 days
Description: as §2, §3

[16] = tested on: M. pneumoniae 429 a; assay: as above; format: cell-based; conditions: Mycoplasmoides pneumoniae, 168 h, source man, 37° C. for 7 days
Description: as §2, §3

[17] = tested on: mycoplasmas from human and veterinary sources; assay: Antimycoplasmal activity in vitro (summary); format: cell-based, mycoplasma; conditions: in words
Description: as §2, §3

[18] = Serum binding by ultrafiltration, filtrate assayed by hole-in-plate method; format: in vitro ADME
Description: The degree of binding to human serum of the compounds of Examples 1 and 2 compared with that of pseudomonic acid was determined by the following procedure:
Test samples were mixed with human serum and placed in visking tubing. Serum binding was determined by ultrafiltration, the filtrate obtained being assayed by a hole-in-plate method using Bacillus subtilis ATCC 6633 against standards prepared in 0.05M pH7.0 phosphate buffer.

[19] = strain 69, 24 hours at 37° C., read-out: M.I.C.
[20] = strain 70, 24 hours at 37° C., read-out: M.I.C.
[21] = strain 77, 24 hours at 37° C., read-out: M.I.C.
[22] = strain 82, 24 hours at 37° C., read-out: M.I.C.
[23] = strain 87, 24 hours at 37° C., read-out: M.I.C.
[24] = strain 2176, 24 hours at 37° C., read-out: M.I.C.
[25] = strain AR 229, 24 hours at 37° C., read-out: M.I.C.
[26] = strain H2057, 24 hours at 37° C., read-out: M.I.C.
[27] = strain VD 79, 24 hours at 37° C., read-out: M.I.C.
[28] = strain VDRL 67, 24 hours at 37° C., read-out: M.I.C.
[29] = strain WHO VII, 24 hours at 37° C., read-out: M.I.C.

## CC1(C)S[C@@H]2[C@H](NC(=O)Cc3ccccc3)C(=O)N2[C@H]1C(=O)O [Benzyl Penicillin, benzylpenicillin, reference compound]
[1]; strain 69, 24 hours at 37° C.
  MIC: 0.1 µg/mL (≈ 0.299 µM)
[1]; strain 70, 24 hours at 37° C.
  MIC: 0.1 µg/mL (≈ 0.299 µM)
[1]; strain 72, 24 hours at 37° C.
  MIC: 0.2 µg/mL (≈ 0.598 µM)
[1]; strain 77, 24 hours at 37° C.
  MIC: 0.1 µg/mL (≈ 0.299 µM)
[1]; strain 82, 24 hours at 37° C.
  MIC: 0.5 µg/mL (≈ 1.5 µM)
[1]; strain 87, 24 hours at 37° C.
  MIC: 0.01 µg/mL (≈ 0.0299 µM)
[1]; strain 2176, 24 hours at 37° C.
  MIC: 0.2 µg/mL (≈ 0.598 µM)
[1]; strain AR 229, 24 hours at 37° C.
  MIC: 1 µg/mL (≈ 2.99 µM)
[1]; strain H2057, 24 hours at 37° C.
  MIC: 0.005 µg/mL (≈ 0.015 µM)
[1]; strain VD 79, 24 hours at 37° C.
  MIC: 0.2 µg/mL (≈ 0.598 µM)
[1]; strain VDRL 67, 24 hours at 37° C.
  MIC: 0.05 µg/mL (≈ 0.15 µM)
[1]; strain WHO VII, 24 hours at 37° C.
  MIC: 0.005 µg/mL (≈ 0.015 µM)
[2]
  MIC: 0.02 µg/mL (≈ 0.0598 µM)

## CNC(=O)CCCCCCCCOC(=O)/C=C(\C)CC1OCC(CC2OC2C(C)C(C)O)C(O)C1O (stereo not drawn) [Example 1, Pseudomonic acid N-methylamide]
[1]; [19]
  MIC: 0.002 µg/mL (≈ 0.00389 µM)
[1]; [20]
  MIC: 0.005 µg/mL (≈ 0.00973 µM)
[1]; [21]
  MIC: 0.005 µg/mL (≈ 0.00973 µM)
[1]; [22]
  MIC: 0.05 µg/mL (≈ 0.0973 µM)
[1]; [23]
  MIC: 0.01 µg/mL (≈ 0.0195 µM)
[1]; [24]
  MIC: 0.02 µg/mL (≈ 0.0389 µM)
[1]; [25]
  MIC: 0.05 µg/mL (≈ 0.0973 µM)
[1]; [26]
  MIC: 0.005 µg/mL (≈ 0.00973 µM)
[1]; [27]
  MIC: 0.02 µg/mL (≈ 0.0389 µM)
[1]; [28]
  MIC: 0.002 µg/mL (≈ 0.00389 µM)
[1]; [29]
  MIC: 0.005 µg/mL (≈ 0.00973 µM)
[3]
  MIC: 0.25 µg/mL (≈ 0.487 µM)
[4]
  MIC: 1.25 µg/mL (≈ 2.43 µM)
[5]
  MIC: 125 µg/mL (≈ 243 µM)
[6]
  MIC: 0.5 µg/mL (≈ 0.973 µM)
[7]
  MIC: 1.25 µg/mL (≈ 2.43 µM)
[2]
  MIC: 0.05 µg/mL (≈ 0.0973 µM)

## C/C(=C\C(=O)OCCCCCCCCC(N)=O)CC1OCC(CC2OC2C(C)C(C)O)C(O)C1O (stereo not drawn) [Example 2, Pseudomonic Acid Amide]
[8]
  MIC: 0.1 µg/mL (≈ 0.2 µM)
[1]; [19]
  MIC: 0.002 µg/mL (≈ 0.004 µM)
[1]; [20]
  MIC: 0.005 µg/mL (≈ 0.01 µM)
[1]; strain 72, 24 hours at 37° C., read-out: M.I.C.
  MIC: 0.01 µg/mL (≈ 0.02 µM)
[1]; [21]
  MIC: 0.02 µg/mL (≈ 0.04 µM)
[1]; [22]
  MIC: 0.05 µg/mL (≈ 0.1 µM)
[1]; [23]
  MIC: 0.005 µg/mL (≈ 0.01 µM)
[1]; [24]
  MIC: 0.02 µg/mL (≈ 0.04 µM)
[1]; [25]
  MIC: 0.05 µg/mL (≈ 0.1 µM)
[1]; [26]
  MIC: 0.005 µg/mL (≈ 0.01 µM)
[1]; [27]
  MIC: 0.02 µg/mL (≈ 0.04 µM)
[1]; [28]
  MIC: 0.002 µg/mL (≈ 0.004 µM)
[1]; [29]
  MIC: 0.002 µg/mL (≈ 0.004 µM)
[9]
  MIC: < 0.5 µg/mL
[10]
  MIC: < 0.5 µg/mL
[11]
  MIC: < 0.5 µg/mL
[12]
  MIC: < 0.5 µg/mL
[13]
  MIC: < 0.5 µg/mL
[14]
  MIC: < 0.5 µg/mL
[15]
  MIC: < 0.5 µg/mL
[16]
  MIC: 250 µg/mL (≈ 500 µM)
[3]
  MIC: 0.25 µg/mL (≈ 0.5 µM)
[4]
  MIC: 2.5 µg/mL (≈ 5 µM)
[5]
  MIC: 100 µg/mL (≈ 200 µM)
[6]
  MIC: 0.5 µg/mL (≈ 1 µM)
[7]
  MIC: 1 µg/mL (≈ 2 µM)
[2]
  MIC: 0.05 µg/mL (≈ 0.1 µM)
[17]
  antimycoplasmal activity in vitro: good antimycoplasmal activity

## C/C(=C\C(=O)OCCCCCCCCC(=O)N(C)C)CC1OCC(CC2OC2C(C)C(C)O)C(O)C1O (stereo not drawn) [Example 3, Pseudomonic acid N,N-dimethylamide]
[9]
  MIC: < 0.5 µg/mL
[10]
  MIC: < 0.5 µg/mL
[11]
  MIC: < 0.5 µg/mL
[12]
  MIC: < 0.5 µg/mL
[13]
  MIC: < 0.5 µg/mL
[14]
  MIC: 3.9 µg/mL (≈ 7.39 µM)
[15]
  MIC: < 0.5 µg/mL
[16]
  MIC: 250 µg/mL (≈ 474 µM)
[17]
  antimycoplasmal activity in vitro: good antimycoplasmal activity

## C/C(=C\C(=O)OCCCCCCCCC(=O)O)C[C@@H]1OC[C@H](C[C@@H]2O[C@H]2[C@@H](C)[C@H](C)O)[C@@H](O)[C@H]1O [Pseudomonic acid]
[18]
  % unbound in human serum: 6.8%
[18]; human, serum
  fraction unbound: 0.066
